Assay results: ChEMBL document CHEMBL6114982, “Structural optimization and characterization of highly potent and selective STAT3 inhibitors for the treatment of triple negative breast cancer” (Eur J Med Chem, 2025)
Activity calls are given as the source filed them. The rule behind the calls is not given here.

How the values were obtained:
MDA-MB-231 [1] = experiment: Downregulation of STAT3 phosphorylation level in human MDA-MB-231 cells preincubated for 48 hrs followed by IL-6 addition and measured after 2 hrs by Western blot analysis; type: functional, cell-based; details: dose 0.05-0.5 µM, time 50.0 hrs
MDA-MB-231 [2] = experiment: Antiproliferative activity against human MDA-MB-231 cells assessed as inhibition of cell growth incubated for 72 hrs by SRB method; type: functional, cell-based; details: MDA-MB-231, 72 h
[3] = molecular target: T1, Signal transducer and activator of transcription 3 (Homo sapiens, UniProt P40763); experiment: Inhibition of STAT3 phosphorylation at Tyr705 residue in human MDA-MB-231 cells at 0.1 uM by Western blot analysis; type: cell-based; details: time 8-48 hrs
[4] = molecular target: T1, Signal transducer and activator of transcription 3; experiment: Inhibition of STAT3 phosphorylation at Tyr705 residue in human BT-549 cells measured after 8 to 48 hrs by Western blot analysis; type: cell-based; details: dose 0.1 µM, time 8-48 hrs
MDA-MB-231 [5] = experiment: Effect on STAT3 expression in human MDA-MB-231 cells at 0.1 microM measured after 8 to 48 hrs by Western blot analysis; type: functional, cell-based; details: time 8-48 hrs
MDA-MB-231 [6] = experiment: Downregulation of cyclin D1 level in human MDA-MB-231 cells measured after 48 hrs by Western blot analysis; type: functional, cell-based; details: dose 0.05-0.5 µM
MDA-MB-231 [7] = experiment: Downregulation of Bcl-xl level in human MDA-MB-231 cells measured after 48 hrs by Western blot analysis; type: functional, cell-based; details: dose 0.05-0.5 µM
BT-549 [8] = experiment: Downregulation of Bcl-xl level in human BT-549 cells measured after 48 hrs by Western blot analysis; type: functional, cell-based; details: dose 0.05-0.5 µM
[9] = molecular target: T2, Tyrosine-protein kinase JAK3 (Homo sapiens) (UniProt P52333); experiment: Inhibition of JAK3 (unknown origin) at upto 10 uM
T2 sequence (whole entry): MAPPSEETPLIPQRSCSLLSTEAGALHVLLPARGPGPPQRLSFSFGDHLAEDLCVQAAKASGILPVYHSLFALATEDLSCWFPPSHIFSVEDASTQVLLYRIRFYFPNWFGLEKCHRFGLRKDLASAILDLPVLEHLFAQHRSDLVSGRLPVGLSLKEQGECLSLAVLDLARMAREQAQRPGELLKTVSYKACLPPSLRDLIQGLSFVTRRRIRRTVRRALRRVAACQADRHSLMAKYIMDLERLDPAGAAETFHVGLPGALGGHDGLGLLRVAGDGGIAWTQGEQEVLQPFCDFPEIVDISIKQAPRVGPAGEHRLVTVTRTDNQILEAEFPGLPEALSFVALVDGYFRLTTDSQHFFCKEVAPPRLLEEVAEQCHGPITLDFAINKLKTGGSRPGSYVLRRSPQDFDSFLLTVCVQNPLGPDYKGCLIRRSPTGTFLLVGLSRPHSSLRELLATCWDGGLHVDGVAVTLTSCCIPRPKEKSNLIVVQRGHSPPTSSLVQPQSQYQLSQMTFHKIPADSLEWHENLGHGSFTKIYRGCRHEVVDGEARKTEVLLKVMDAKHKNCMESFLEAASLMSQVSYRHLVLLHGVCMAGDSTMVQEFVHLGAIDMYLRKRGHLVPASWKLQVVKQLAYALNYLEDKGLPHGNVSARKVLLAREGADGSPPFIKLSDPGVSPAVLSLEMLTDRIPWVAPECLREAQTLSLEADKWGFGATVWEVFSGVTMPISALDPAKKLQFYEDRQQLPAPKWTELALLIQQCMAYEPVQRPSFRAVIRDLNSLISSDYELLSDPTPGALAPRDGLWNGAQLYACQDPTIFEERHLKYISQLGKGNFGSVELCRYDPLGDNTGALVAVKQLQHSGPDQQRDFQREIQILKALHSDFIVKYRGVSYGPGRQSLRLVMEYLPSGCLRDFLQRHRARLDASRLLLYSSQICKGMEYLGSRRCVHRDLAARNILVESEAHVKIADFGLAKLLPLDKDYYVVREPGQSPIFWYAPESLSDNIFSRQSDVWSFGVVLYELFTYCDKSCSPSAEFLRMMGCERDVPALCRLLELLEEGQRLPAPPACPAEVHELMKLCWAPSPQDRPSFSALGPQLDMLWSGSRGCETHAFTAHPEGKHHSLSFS

[10] = molecular target: Epidermal growth factor receptor (Homo sapiens) (UniProt P00533); experiment: Inhibition of EGFR (unknown origin) at upto 10 uM
Homo sapiens = species on record: Homo sapiens; experiment: Inhibition of SRC phosphorylation (unknown origin) at […] residue at upto 10 uM
MDA-MB-231 [11] = experiment: Effect on Akt phosphorylation level in human MDA-MB-231 cells at 0.05 to 0.5 uM measured after 48 hrs by Western blot analysis; type: functional, cell-based; details: dose 0.05-0.5 µM
MDA-MB-231 [12] = experiment: Effect on STAT5 phosphorylation level in human MDA-MB-231 cells at 0.05 to 0.5 uM measured after 48 hrs by Western blot analysis; type: functional, cell-based; details: dose 0.05-0.5 µM
[13] = molecular target: T1, Signal transducer and activator of transcription 3; experiment: Inhibition of STAT3 nuclear translocation in human MDA-MB-231 cells assessed as decrease in p-STAT3 at Tyr705 residue at 0.05 to 0.5 uM preincubated for 48 hrs followed by IL-6 addition and measured after 2 hrs by Immunofluorescence analysis; type: cell-based; details: dose 0.05-0.5 µM, time 50.0 hrs
MDA-MB-231 [14] = experiment: Inhibition of colony formation in human MDA-MB-231 cells measured after 14 days by crystal violet staining based analysis; type: functional, cell-based; details: dose 0.1-0.5 µM, time 14.0 day
BT-549 [15] = experiment: Inhibition of colony formation in human BT-549 cells at low concentration measured after 14 days by crystal violet staining based analysis; type: functional, cell-based; details: time 14.0 day
MDA-MB-231 [16] = experiment: Inhibition of colony formation in human MDA-MB-231 cells measured after 14 days by soft agar plate cloning assay; type: functional, cell-based; details: time 14.0 day
MDA-MB-231 [17] = experiment: Inhibition colony formation in human MDA-MB-231 cells harbouring STAT3 siRNA at 0.1 uM after 14 days by crystal violet staining based analysis; type: functional, cell-based; details: time 14.0 day
MDA-MB-231 [18] = experiment: Inhibition of cell migration in human MDA-MB-231 cells assessed as reduction in wound closure proportion at 0.05 to 0.5 uM incubated for 24 hrs by inverted microscopic analysis; type: functional, cell-based; details: dose 0.05-0.5 µM
MDA-MB-231 [19] = experiment: Inhibition of cell invasion in human MDA-MB-231 cells assessed as decrease in number of invaded cells incubated for 24 hrs by crystal violet staining based inverted microscopic analysis; type: functional; details: dose 0.05-0.5 µM
MDA-MB-231 [20] = experiment: Induction of apoptosis in human MDA-MB-231 cells incubated for 48 hrs by Annexin V and PI staining based flow cytometry analysis; type: functional, cell-based; details: dose 0.05-0.5 µM
[21] = MRT in female BALB/c nude mouse administered as iv dose; type: ADME, organism-based; details: in vivo
[22] = Toxicity in female BALB/c nude mouse assessed as effect on lung at 10 to 20 mg/kg, iv measured after 30 days by H and E staining based analysis; type: organism-based; details: in vivo, 720 h, dose 10-20 mg/kg, time 30 day
[23] = molecular target: T1, Signal transducer and activator of transcription 3; experiment: Inhibition of STAT3 phosphorylation in human MDA-MB-231 cells assessed as upregulation of UBE2S expression level; type: cell-based
[24] = molecular target: T1, Signal transducer and activator of transcription 3; experiment: Inhibition of STAT3 phosphorylation in human MDA-MB-231 cells assessed as downregulation of KRT10 expression level; type: cell-based
[25] = molecular target: T1, Signal transducer and activator of transcription 3; experiment: Inhibition of STAT3 in human MDA-MB-231 cells assessed as downregulation of CCNB1 level; type: cell-based
[26] = molecular target: T1, Signal transducer and activator of transcription 3; experiment: Inhibition of STAT3 in human MDA-MB-231 cells assessed as downregulation of SPRY1 level; type: cell-based

T1 sequence (P40763 whole entry): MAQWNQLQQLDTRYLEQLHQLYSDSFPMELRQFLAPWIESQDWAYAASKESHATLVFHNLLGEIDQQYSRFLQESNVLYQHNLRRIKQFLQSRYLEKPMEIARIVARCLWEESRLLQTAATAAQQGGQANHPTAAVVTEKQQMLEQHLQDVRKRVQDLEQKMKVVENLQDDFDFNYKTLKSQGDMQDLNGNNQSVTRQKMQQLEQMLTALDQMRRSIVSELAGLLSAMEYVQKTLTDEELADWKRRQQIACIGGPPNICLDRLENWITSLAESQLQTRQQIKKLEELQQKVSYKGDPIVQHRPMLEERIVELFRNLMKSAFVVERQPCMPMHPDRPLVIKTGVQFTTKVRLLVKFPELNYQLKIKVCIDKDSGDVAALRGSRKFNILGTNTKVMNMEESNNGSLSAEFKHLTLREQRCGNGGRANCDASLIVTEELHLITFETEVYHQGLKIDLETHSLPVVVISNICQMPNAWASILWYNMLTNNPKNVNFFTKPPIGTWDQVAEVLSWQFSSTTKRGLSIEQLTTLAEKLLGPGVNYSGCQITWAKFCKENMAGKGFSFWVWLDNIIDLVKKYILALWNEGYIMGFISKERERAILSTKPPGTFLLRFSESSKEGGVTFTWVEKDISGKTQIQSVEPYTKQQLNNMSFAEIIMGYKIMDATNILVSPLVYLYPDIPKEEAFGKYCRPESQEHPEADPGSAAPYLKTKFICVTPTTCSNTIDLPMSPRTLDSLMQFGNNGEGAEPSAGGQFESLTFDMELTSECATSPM
Epidermal growth factor receptor (Homo sapiens), sequence (P00533 whole entry): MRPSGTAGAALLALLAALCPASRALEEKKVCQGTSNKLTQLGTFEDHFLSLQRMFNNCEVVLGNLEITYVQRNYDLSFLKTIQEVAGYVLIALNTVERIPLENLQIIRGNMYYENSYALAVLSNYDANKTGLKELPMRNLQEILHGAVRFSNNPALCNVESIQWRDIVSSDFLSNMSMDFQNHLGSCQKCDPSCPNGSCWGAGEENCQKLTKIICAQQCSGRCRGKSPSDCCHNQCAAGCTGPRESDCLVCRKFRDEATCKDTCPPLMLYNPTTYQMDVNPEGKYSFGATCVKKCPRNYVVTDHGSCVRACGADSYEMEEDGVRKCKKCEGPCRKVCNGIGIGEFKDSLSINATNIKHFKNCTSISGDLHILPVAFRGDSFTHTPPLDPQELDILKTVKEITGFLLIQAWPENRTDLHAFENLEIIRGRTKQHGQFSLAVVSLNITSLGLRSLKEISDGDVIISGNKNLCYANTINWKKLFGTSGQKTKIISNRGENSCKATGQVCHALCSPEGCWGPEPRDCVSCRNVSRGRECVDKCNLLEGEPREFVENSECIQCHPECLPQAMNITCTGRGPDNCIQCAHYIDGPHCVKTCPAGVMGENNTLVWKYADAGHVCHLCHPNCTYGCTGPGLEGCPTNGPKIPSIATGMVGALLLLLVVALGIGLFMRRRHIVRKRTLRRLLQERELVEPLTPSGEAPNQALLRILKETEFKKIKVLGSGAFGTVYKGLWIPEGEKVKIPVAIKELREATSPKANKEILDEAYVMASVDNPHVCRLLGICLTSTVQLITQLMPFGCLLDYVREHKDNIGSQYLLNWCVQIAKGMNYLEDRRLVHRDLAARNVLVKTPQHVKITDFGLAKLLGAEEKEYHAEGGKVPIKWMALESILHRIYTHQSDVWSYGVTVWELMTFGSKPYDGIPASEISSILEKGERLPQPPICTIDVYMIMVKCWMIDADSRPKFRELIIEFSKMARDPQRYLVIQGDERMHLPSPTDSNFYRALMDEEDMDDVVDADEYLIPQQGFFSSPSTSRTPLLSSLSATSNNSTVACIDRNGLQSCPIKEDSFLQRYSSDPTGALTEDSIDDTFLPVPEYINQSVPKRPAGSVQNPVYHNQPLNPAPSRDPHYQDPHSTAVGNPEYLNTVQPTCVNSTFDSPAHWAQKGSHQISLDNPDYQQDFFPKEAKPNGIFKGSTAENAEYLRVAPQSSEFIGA

COc1cccc(C(=O)Nc2sc3c(c2C#N)CCN(C(=O)Nc2ccccc2OC)C3)c1
Activity (MDA-MB-231 [1]): Dose-dependent-effect | IC50 (MDA-MB-231 [2]): 30 nM | inhibition [3]: Time-dependent-effect | inhibition [4]: Dose-dependent-effect | Activity (MDA-MB-231 [5]): Active; Compound Showed Little Impact On Stat3 Expression | Activity (MDA-MB-231 [6]): Dose-dependent-effect | Activity (MDA-MB-231 [7]): Dose-dependent-effect | Activity (BT-549 [8]): Dose-dependent-effect | inhibition [9]: Active; Compound Showed Little Inhibitory Effect | inhibition [10]: Active; Compound Showed Little Inhibitory Effect | inhibition (Homo sapiens): Active; Compound Showed Little Inhibitory Effect | Activity (MDA-MB-231 [11]): inactive | Activity (MDA-MB-231 [12]): inactive | inhibition [13]: Active | inhibition (MDA-MB-231 [14]): Dose-dependent-effect | inhibition (BT-549 [15]): Active; Compound Showed Robust Inhibition Compared To Positive Control | inhibition (MDA-MB-231 [16]): Active | inhibition (MDA-MB-231 [17]): inactive | inhibition (MDA-MB-231 [18]): Active | inhibition (MDA-MB-231 [19]): Dose-dependent-effect | Activity (MDA-MB-231 [20]): Dose-dependent-effect | MRT [21]: 10 h | Activity [22]: Non-toxic | inhibition [23]: Active | inhibition [24]: Active | inhibition [25]: Active | inhibition [26]: Active
